Measurements published in PubChem BioAssay AID1053151 (Broad Institute, 2014).

Experiments:
[1] = system: HepG2 secreted ApoB ELISA, 24 h; assay: reduction of secreted ApoB protein, dose response, orthogonal assay for Trib1 inducer project, cell-based, HepG2, ELISA, plate reader, cherry-pick (AID 1053151)
[2] = as above; details: HepG2 secreted ApoB ELISA, 24 h, ApoB inhibition at active concentration, stronger effect = higher value

Row | SMILES | active concentration (lower = more potent) [1] | inhibition ([2]; at 3.5 µM) | inhibition ([2]; at 0.02 µM)
1 | CN1C(=O)c2cc(NC(=O)c3ccc(C(F)(F)F)cc3)ccc2OC[C@@H]2O[C@@H](CC(=O)NC3Cc4ccccc4C3)CC[C@@H]21 | 3500 nM | 90% | 
2 | CN1C(=O)c2cc(NC(=O)c3ccc(C(F)(F)F)cc3)ccc2OC[C@@H]2O[C@H](CC(=O)NC3Cc4ccccc4C3)CC[C@@H]21 | 20 nM |  | 99%
